Test results published in patent US20220193047A1, “METHODS OF ENHANCING RADIOTHERAPY USING FERROPTOSIS INDUCERS AS RADIOSENSITIZERS” (THE TRUSTEES OF COLUMBIA UNIVERSITY IN THE CITY OF NEW YORK, priority 2019, published 2022).

Key:
Assay type in all cases: cell-based
malondialdehyde (MDA) = experiment: TBARS assay of MDA levels; details: HT-1080, 24 h; 1 μM IKE or 10 μM ferrostatin-1, with or without 6 Gy radiation
Experimental: 2 million cells were seeded in T175 flasks. […] The whole lysate was used to determine MDA concentration in each sample. We used the TBARS assay kit (Cayman Chemical) and followed the product instructions.
Next, levels of malondialdehyde (MDA), a biomarker for lipid peroxidation and ferroptosis, were quantified using an assay that measures thiobarbituric acid reactive substances (TBARS) (Gaschler et al., 2018). In this assay, thiobarbituric acid (TBA) was added to cell lysates and heated under acidic conditions to form the MDA-TBA adduct, which was measured colorimetrically.

PTGS2 mRNA = experiment: RT-qPCR of PTGS2 mRNA; details: HT-1080, 6 Gy radiation, 24 hours; 100 nM RSL3 or 10 μM ferrostatin-1
Experimental: RNA was extracted using the Qiashredder and QIAGEN RNeasy Mini kits (QIAGEN) according to the manufacturer's protocol. 2 μg total RNA for each sample was used as input for each reverse transcription reaction. Quantitative PCR reactions were performed using the Power SYBR Green PCR Master Mix (Thermo Fisher Scientific). Triplicate samples per condition were analyzed on an Applied Biosystems 7300 qPCR instrument using absolute quantification settings. Differences in mRNA levels compared to ACTB internal reference control were computed between control and experimental conditions using the ΔΔCt method. The primers used in this study are listed below.

[1] = tested on: human glioma slice cultures; experiment: Human glioma organotypic slice cultures, H2DCFDA ROS by flow cytometry
Experimental: Human surgical specimens were collected from Columbia University Medical Center operating theaters in accordance with Institutional Review Board protocols. Surgical specimens were deidentified, placed in a sterile 50 mL conical tube containing ice-cold sucrose solution (210 mM sucrose, 10 mM glucose, 2.5 mM KCl, 1.25 mM NaH2PO4, 0.5 mM CaCl2), 7 mM MgCl2 and 26 mM NaHCO3). Tissue specimens were let rest in the sucrose solution for 20 minutes. Tissue specimens were then cut into 300 μm sections using a Mcllwain Tissue Chopper. Sections after cutting were let rest in the sucrose solution for 20 minutes. Then the tissue sections were transferred onto Millicell cell culture inserts ([…], 30 mm diameter) and placed in 6-well plates containing 1.5 mL of media. The media consisted of DMEM/F12 plus N−2 Supplement. […]
To further study the potential of combining small-molecule ferroptosis inducers and radiation for human therapeutic use, ex vivo samples of human glioma, which have been immediately cut from freshly resected tumors and grown as organotypic slice cultures, were used as previously described (Parker et al., 2017). De-identified patient information for these tumor samples are recorded in Table 4. […] Tumor cell viability within slices was not assessed, as the number of tumor cells embedded in each slice cannot be normalized between slices.

SK-LMS-1 cells = experiment: Clonogenic assay with radiation, SK-LMS-1
Experimental: (§1) 500 cells were seeded per well in 6-well plates in their respective growth media and incubated overnight. The next day, cells were co-treated with DMSO or compounds and radiation using a Gammacell 40 Caesium-137 irradiator (Theratronics). Plates were monitored every day using a light microscope for formation of colonies in the DMSO-treated wells. When colonies of >50 cells are clearly visible, the growth medium was discarded from all plates. The cells were washed with PBS, then fixed and stained with crystal violet solution (0.05% crystal violet, 1% formaldehyde, 1% methanol in PBS). Colonies were then directly visualized and counted.
(§2) The coefficient of drug interaction (CDI), used to compute interaction between two drugs, was used to quantify synergy between cell death inducers and radiation according to the formula CDI=AB/(A×B), where AB is the surviving fraction of the combination treatment, and A and B are the surviving fractions of the individual treatments. […]
(§3) It was then tested whether cell death enhancement of radiation with ferroptosis inducers occurred across diverse tumor cell types. […] In addition to the initial ferroptosis-sensitive HT-1080 sarcoma cell line, glioma and lung cancer cells were evaluated, due to the clinical relevance of radiation therapy for the treatment of these tumor types. […]

HT-1080 cells = experiment: Microbeam irradiation and clonogenic assay; details: HT-1080, clonogenic survival
Experimental: 300-500 HT-1080 cells were plated on polypropylene film treated with 3.5 μg/cm^2 Cell-Tak adhesive (BD Biosciences). The next day, cells were stained with Hoechst 33342 for 30 min. Cells were imaged, and their center-of-gravity coordinates were registered to automatically locate them by the microbeam control program. For nuclear irradiation, protons (^1H+) were directed by a precision beam to the center of the nucleus. For cytoplasmic irradiation, protons were directed to two locations 7 μm away from the ends of the major axis of each nucleus, as previously described (Wu et al., 1999). In each case, the beam has an accuracy of ±0.2 μm with 95% efficiency. Post-irradiation, cells were trypsinized and re-plated at a density of 500 cells per well in 6-well plates for clonogenic assays.
To target the microbeam, cells were labeled with Hoechst stain and imaged. Nuclear radiation was delivered to the center of gravity of the cell nucleus, whereas cytoplasmic radiation was delivered to two sites 7 microns away from the nuclear edge along the nuclear long axis (FIG. 5A). Using this method, we first established dose responses of these cells to nuclear and cytoplasmic radiation. […] Compared to conventional photon radiation, these doses approximately correspond to 1 Gy to the nucleus and between 1-5 Gy to the cytoplasm, a therapeutically relevant dose range that is consistent with our previous experiments.

A549 cells = experiment: Clonogenic assay with radiation, A549
Experimental: as §1, §2, §3

PC9 cells = experiment: Clonogenic assay with radiation, PC9
Experimental: as §1, §2, §3

U87 cells = experiment: Clonogenic assay with radiation, U87
Experimental: as §1, §2, §3

| Structure (SMILES) | MDA levels (malondialdehyde (MDA)) | PTGS2 mRNA (PTGS2 mRNA) | ROS accumulation with IKE and radiation, ferrostatin-1 co-treatment ([1]; 10 μM ferrostatin-1) | Highest observed coefficient of Drug Interaction (CDI) in combination with IR (SK-LMS-1 cells) | Synergy with cytoplasmic microbeam radiation (HT-1080 cells) | Highest observed coefficient of Drug Interaction (CDI) in combination with IR (A549 cells) | Highest observed coefficient of Drug Interaction (CDI) in combination with IR (PC9 cells) | Highest observed coefficient of Drug Interaction (CDI) in combination with IR (U87 cells) | ROS generation (H2DCFDA), combination with radiation vs control ([1]; 10 μM IKE, 2 Gy radiation, 24 hours, three responsive slice cultures) | Synergy with nuclear microbeam radiation (HT-1080 cells) |
| --- | --- | --- | --- | --- | --- | --- | --- | --- | --- | --- |
| CCOC(=O)c1ccc(NC2CCCCC2)c(N)c1 [ferrostatin-1] | significantly lower levels of MDA | reversed this induction of PTGS2 | partially suppressible |  |  |  |  |  |  |  |
| CC(C)Oc1ccc(C(=O)Cn2ccnc2)cc1-n1c(CN2CCN(C(=O)COc3ccc(Cl)cc3)CC2)nc2ccccc2c1=O [IKE, imidazole ketone erastin] | significantly elevated |  |  | 0.48 | synergized strongly | 0.30 | 0.70 | 0.65 | significant enhancement of ROS generation |  |
| COC(=O)c1ccc([C@@H]2c3[nH]c4ccccc4c3C[C@@H](C(=O)OC)N2C(=O)CCl)cc1 [RSL3, Ras Synthetic Lethal 3] |  | even further enhanced |  | 0.31 | synergized strongly | 0.31 | 0.64 | 0.31 |  | no synergy |
